Active and inactive are the calls of the source. How the calls were made is not given here.
Test system: CCRIS mutagenicity, Ames/micronucleus/aberration tests
Test: CCRIS mutagenicity studies
[1] = Test System: AMES SALMONELLA TYPHIMURIUM, Strain/Indicator: TA98, Metabolic Activation: NONE, Method: STANDARD PLATE
[2] = Test System: AMES SALMONELLA TYPHIMURIUM, Strain/Indicator: TA98, Metabolic Activation: NONE, Method: PREINCUBATION
[3] = Test System: AMES SALMONELLA TYPHIMURIUM, Strain/Indicator: TA100, Metabolic Activation: NONE, Method: PREINCUBATION
[4] = Test System: AMES SALMONELLA TYPHIMURIUM, Strain/Indicator: TA1535, Metabolic Activation: NONE, Method: PREINCUBATION
[5] = Test System: AMES SALMONELLA TYPHIMURIUM, Strain/Indicator: TA1537, Metabolic Activation: NONE, Method: PREINCUBATION

Q: With `COCC1O[C@@H](O[C@@H]2C(COC)OC(OC)C(OC)C2OC)C(OC)C(OC)C1OC` (stereo partly drawn) as the compound, how does the mutagenic call [1] read?
A: inactive; negative

Q: What about the mutagenic call (Test System: AMES SALMONELLA TYPHIMURIUM, Strain/Indicator: TA98, Metabolic Activation: RAT, LIVER, S-9, AROCLOR 1254, Method: STANDARD PLATE) of the same compound?
A: inactive; negative

Q: What about the mutagenic call (Test System: AMES SALMONELLA TYPHIMURIUM, Strain/Indicator: TA100, Metabolic Activation: NONE, Method: STANDARD PLATE) of the same compound?
A: inactive; negative

Q: What about the mutagenic call (Test System: AMES SALMONELLA TYPHIMURIUM, Strain/Indicator: TA100, Metabolic Activation: RAT, LIVER, S-9, AROCLOR 1254, Method: STANDARD PLATE) of the same compound?
A: inactive; negative

Q: And the mutagenic call (Test System: AMES SALMONELLA TYPHIMURIUM, Strain/Indicator: TA1535, Metabolic Activation: NONE, Method: STANDARD PLATE)?
A: inactive; negative

Q: What about the mutagenic call (Test System: AMES SALMONELLA TYPHIMURIUM, Strain/Indicator: TA1535, Metabolic Activation: RAT, LIVER, S-9, AROCLOR 1254, Method: STANDARD PLATE) of the same compound?
A: inactive; negative

Q: And the mutagenic call (Test System: AMES SALMONELLA TYPHIMURIUM, Strain/Indicator: TA1537, Metabolic Activation: NONE, Method: STANDARD PLATE)?
A: inactive; negative

Q: What about the mutagenic call (Test System: AMES SALMONELLA TYPHIMURIUM, Strain/Indicator: TA1537, Metabolic Activation: RAT, LIVER, S-9, AROCLOR 1254, Method: STANDARD PLATE) of the same compound?
A: inactive; negative

Q: And the mutagenic call (Test System: AMES SALMONELLA TYPHIMURIUM, Strain/Indicator: TA1538, Metabolic Activation: NONE, Method: STANDARD PLATE)?
A: inactive; negative

Q: And the mutagenic call (Test System: AMES SALMONELLA TYPHIMURIUM, Strain/Indicator: TA1538, Metabolic Activation: RAT, LIVER, S-9, AROCLOR 1254, Method: STANDARD PLATE)?
A: inactive; negative

Q: What about the mutagenic call (Test System: E. COLI, Strain/Indicator: WP2, Metabolic Activation: NONE, Method: STANDARD PLATE) of the same compound?
A: inactive; negative

Q: What about the mutagenic call (Test System: E. COLI, Strain/Indicator: WP2, Metabolic Activation: RAT, LIVER, S-9, AROCLOR 1254, Method: STANDARD PLATE) of the same compound?
A: inactive; negative

Q: With `O=[N+]([O-])c1cc2c3c(ccc4cccc(c43)CC2)c1` as the compound, how does the mutagenic call (Test System: AMES SALMONELLA TYPHIMURIUM, Strain/Indicator: TA98(1,8-DNP6), Metabolic Activation: NONE, Method: STANDARD PLATE) read?
A: active; positive

Q: And the mutagenic call (Test System: AMES SALMONELLA TYPHIMURIUM, Strain/Indicator: TA98(NR), Metabolic Activation: NONE, Method: STANDARD PLATE)?
A: active; positive

Q: What about the mutagenic call [1] of the same compound?
A: active; positive

Q: What does the source list for `COc1cc(CCCS(=O)(=O)O)ccc1O[C@H](Cc1cccc(OC)c1O)CS(=O)(=O)O`?
A: mutagenic call (Test System: AMES SALMONELLA TYPHIMURIUM, Strain/Indicator: TA98, Metabolic Activation: HAMSTER, LIVER, S-9, AROCLOR 1254, Method: PREINCUBATION): inactive; negative; mutagenic call [2]: inactive; negative; mutagenic call (Test System: AMES SALMONELLA TYPHIMURIUM, Strain/Indicator: TA98, Metabolic Activation: RAT, LIVER, S-9, AROCLOR 1254, Method: PREINCUBATION): inactive; negative; mutagenic call (Test System: AMES SALMONELLA TYPHIMURIUM, Strain/Indicator: TA100, Metabolic Activation: HAMSTER, LIVER, S-9, AROCLOR 1254, Method: PREINCUBATION): inactive; negative; mutagenic call [3]: inactive; negative; mutagenic call (Test System: AMES SALMONELLA TYPHIMURIUM, Strain/Indicator: TA100, Metabolic Activation: RAT, LIVER, S-9, AROCLOR 1254, Method: PREINCUBATION): inactive; negative; mutagenic call (Test System: AMES SALMONELLA TYPHIMURIUM, Strain/Indicator: TA1535, Metabolic Activation: HAMSTER, LIVER, S-9, AROCLOR 1254, Method: PREINCUBATION): inactive; negative; mutagenic call [4]: inactive; negative; mutagenic call (Test System: AMES SALMONELLA TYPHIMURIUM, Strain/Indicator: TA1535, Metabolic Activation: RAT, LIVER, S-9, AROCLOR 1254, Method: PREINCUBATION): inactive; negative; mutagenic call (Test System: AMES SALMONELLA TYPHIMURIUM, Strain/Indicator: TA1537, Metabolic Activation: HAMSTER, LIVER, S-9, AROCLOR 1254, Method: PREINCUBATION): inactive; negative; mutagenic call [5]: inactive; negative; mutagenic call (Test System: AMES SALMONELLA TYPHIMURIUM, Strain/Indicator: TA1537, Metabolic Activation: RAT, LIVER, S-9, AROCLOR 1254, Method: PREINCUBATION): inactive; negative

Q: Which mutagenic call (Test System: AMES SALMONELLA TYPHIMURIUM, Strain/Indicator: TA97, Metabolic Activation: HAMSTER, LIVER, S-9, AROCLOR 1254 (10%), Method: PREINCUBATION) does the source give for `CCCCCCCCCCCCCCCCC1CO1` (stereo not drawn) here?
A: inactive; negative

Q: And the mutagenic call (Test System: AMES SALMONELLA TYPHIMURIUM, Strain/Indicator: TA97, Metabolic Activation: HAMSTER, LIVER, S-9, AROCLOR 1254 (30%), Method: PREINCUBATION)?
A: inactive; negative

Q: What about the mutagenic call (Test System: AMES SALMONELLA TYPHIMURIUM, Strain/Indicator: TA97, Metabolic Activation: NONE, Method: PREINCUBATION) of the same compound?
A: inactive; negative

Q: What about the mutagenic call (Test System: AMES SALMONELLA TYPHIMURIUM, Strain/Indicator: TA97, Metabolic Activation: RAT, LIVER, S-9, AROCLOR 1254 (10%), Method: PREINCUBATION) of the same compound?
A: inactive; negative

Q: What about the mutagenic call (Test System: AMES SALMONELLA TYPHIMURIUM, Strain/Indicator: TA97, Metabolic Activation: RAT, LIVER, S-9, AROCLOR 1254 (30%), Method: PREINCUBATION) of the same compound?
A: inactive; negative

Q: And the mutagenic call (Test System: AMES SALMONELLA TYPHIMURIUM, Strain/Indicator: TA98, Metabolic Activation: HAMSTER, LIVER, S-9, AROCLOR 1254 (10%), Method: PREINCUBATION)?
A: inactive; negative

Q: And the mutagenic call (Test System: AMES SALMONELLA TYPHIMURIUM, Strain/Indicator: TA98, Metabolic Activation: HAMSTER, LIVER, S-9, AROCLOR 1254 (30%), Method: PREINCUBATION)?
A: inactive; negative

Q: And the mutagenic call [2]?
A: inactive; negative

Q: And the mutagenic call (Test System: AMES SALMONELLA TYPHIMURIUM, Strain/Indicator: TA98, Metabolic Activation: RAT, LIVER, S-9, AROCLOR 1254 (10%), Method: PREINCUBATION)?
A: inactive; negative

Q: What about the mutagenic call (Test System: AMES SALMONELLA TYPHIMURIUM, Strain/Indicator: TA98, Metabolic Activation: RAT, LIVER, S-9, AROCLOR 1254 (30%), Method: PREINCUBATION) of the same compound?
A: inactive; negative

Q: What about the mutagenic call (Test System: AMES SALMONELLA TYPHIMURIUM, Strain/Indicator: TA100, Metabolic Activation: HAMSTER, LIVER, S-9, AROCLOR 1254 (10%), Method: PREINCUBATION) of the same compound?
A: inactive; negative

Q: What about the mutagenic call (Test System: AMES SALMONELLA TYPHIMURIUM, Strain/Indicator: TA100, Metabolic Activation: HAMSTER, LIVER, S-9, AROCLOR 1254 (30%), Method: PREINCUBATION) of the same compound?
A: inactive; negative

Q: And the mutagenic call [3]?
A: inactive; negative

Q: And the mutagenic call (Test System: AMES SALMONELLA TYPHIMURIUM, Strain/Indicator: TA100, Metabolic Activation: RAT, LIVER, S-9, AROCLOR 1254 (10%), Method: PREINCUBATION)?
A: inactive; negative

Q: What about the mutagenic call (Test System: AMES SALMONELLA TYPHIMURIUM, Strain/Indicator: TA100, Metabolic Activation: RAT, LIVER, S-9, AROCLOR 1254 (30%), Method: PREINCUBATION) of the same compound?
A: inactive; negative

Q: What about the mutagenic call (Test System: AMES SALMONELLA TYPHIMURIUM, Strain/Indicator: TA1535, Metabolic Activation: HAMSTER, LIVER, S-9, AROCLOR 1254 (10%), Method: PREINCUBATION) of the same compound?
A: inactive; negative

Q: And the mutagenic call (Test System: AMES SALMONELLA TYPHIMURIUM, Strain/Indicator: TA1535, Metabolic Activation: HAMSTER, LIVER, S-9, AROCLOR 1254 (30%), Method: PREINCUBATION)?
A: inactive; negative

Q: And the mutagenic call [4]?
A: inactive; negative

Q: And the mutagenic call (Test System: AMES SALMONELLA TYPHIMURIUM, Strain/Indicator: TA1535, Metabolic Activation: RAT, LIVER, S-9, AROCLOR 1254 (10%), Method: PREINCUBATION)?
A: inactive; negative

Q: And the mutagenic call (Test System: AMES SALMONELLA TYPHIMURIUM, Strain/Indicator: TA1535, Metabolic Activation: RAT, LIVER, S-9, AROCLOR 1254 (30%), Method: PREINCUBATION)?
A: inactive; negative

Q: And the mutagenic call (Test System: AMES SALMONELLA TYPHIMURIUM, Strain/Indicator: TA1537, Metabolic Activation: HAMSTER, LIVER, S-9, AROCLOR 1254 (10%), Method: PREINCUBATION)?
A: inactive; negative

Q: What about the mutagenic call (Test System: AMES SALMONELLA TYPHIMURIUM, Strain/Indicator: TA1537, Metabolic Activation: HAMSTER, LIVER, S-9, AROCLOR 1254 (30%), Method: PREINCUBATION) of the same compound?
A: inactive; negative

Q: What about the mutagenic call [5] of the same compound?
A: inactive; negative

Q: What about the mutagenic call (Test System: AMES SALMONELLA TYPHIMURIUM, Strain/Indicator: TA1537, Metabolic Activation: RAT, LIVER, S-9, AROCLOR 1254 (10%), Method: PREINCUBATION) of the same compound?
A: inactive; negative

Q: And the mutagenic call (Test System: AMES SALMONELLA TYPHIMURIUM, Strain/Indicator: TA1537, Metabolic Activation: RAT, LIVER, S-9, AROCLOR 1254 (30%), Method: PREINCUBATION)?
A: inactive; negative

Q: How did the mutagenic call (Test System: CHINESE HAMSTER V-79, Strain/Indicator: V-79/8-AZAGUANINE, Metabolic Activation: NONE, Method: STANDARD PLATE) turn out when `Cc1ccc2cc3c4c(ccc3c3c2c1CC3)C(O)C(O)C=C4` (stereo not drawn) was run?
A: active; positive

Source: PubChem BioAssay AID1259407 (Chemical Carcinogenesis Research Information System (CCRIS), 2018)
